{"source": "paper PMC10287695", "about": "“Non-covalent inhibitors of thioredoxin glutathione reductase with schistosomicidal activity in vivo” (Nature Communications, 2023)", "key": {"[1]": {"experiment": "Stability of compound under biochemical assay conditions with recombinant TGR (LC-MS)", "format": "physicochemical", "details": "with or without NADPH", "description": "TGR assay solutions (1 ml each) were prepared as described in the main manuscript. […] Each of the reaction mixtures were terminated by the addition of 250 µl of ethyl acetate, extracted with 1 ml of methyl tert-butyl ether. The organic layer was evaporated in vacuo, and the residue was redissolved in 0.5 mL of 50% MeOH before injection onto LC column. LC-MS analysis was done on a Waters SYNAPT quadrupole/time-of-flight mass spectrometer operated in positive ion electrospray mode. The column was Waters XBridge C8 column and gradient was from 20-90% MeCN/0.1% formic acid over 12 min."}, "TGR": {"target": "T1, TGR (Schistosoma mansoni, UniProt Q962Y6)", "T1 construct": "made in house", "T1 sequence (Q962Y6 1-598)": "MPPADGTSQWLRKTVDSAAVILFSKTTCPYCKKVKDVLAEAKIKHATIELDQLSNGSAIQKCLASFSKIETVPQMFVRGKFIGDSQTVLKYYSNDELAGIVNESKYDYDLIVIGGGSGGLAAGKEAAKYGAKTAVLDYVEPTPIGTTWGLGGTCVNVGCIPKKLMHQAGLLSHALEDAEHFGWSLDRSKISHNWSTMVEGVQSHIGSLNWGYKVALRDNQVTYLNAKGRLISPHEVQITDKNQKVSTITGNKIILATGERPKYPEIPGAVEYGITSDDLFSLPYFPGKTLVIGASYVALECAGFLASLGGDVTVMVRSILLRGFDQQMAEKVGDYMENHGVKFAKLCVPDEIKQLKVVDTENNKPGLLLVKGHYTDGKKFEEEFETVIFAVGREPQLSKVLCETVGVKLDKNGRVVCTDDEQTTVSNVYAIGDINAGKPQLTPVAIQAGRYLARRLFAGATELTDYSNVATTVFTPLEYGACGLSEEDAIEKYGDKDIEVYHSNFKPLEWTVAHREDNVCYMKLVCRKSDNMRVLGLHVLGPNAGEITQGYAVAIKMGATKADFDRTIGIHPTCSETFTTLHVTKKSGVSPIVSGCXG", "format": "biochemical, S. mansoni", "details": "6 hr preincubation"}, "adult worms in mice": {"test_system": "adult worms in mice", "set-up": "method as in PMID 15013742", "details": "cited from earlier work"}, "adult worms": {"test_system": "adult worms", "set-up": "method as in PMID 15013742", "details": "overnight exposure followed by 8 days culture; cited from earlier work"}, "juvenile worms in mice": {"test_system": "juvenile worms in mice", "details": "cited from earlier work"}}, "note": "“Also recorded” adds a separate entry of the source. Like-named read-outs stand apart in the source and are kept apart here."}
{"smiles": "CCc1ccccc1-c1nc(CN[C@@H]2C[C@@H]3C[C@H]([C@H]2C)C3(C)C)c(C)o1", "note": "[Compound 2]", "values": [{"measurement": "formation of derivatives under biochemical assay conditions", "setting": "[1]", "result": "No additional ions except for those corresponding to 2 were detected; also recorded: no formation of derivatives"}]}
{"smiles": "Cc1oc(-c2ccccc2)nc1CN[C@@H]1C[C@@H]2C[C@H]([C@H]1C)C2(C)C", "note": "[Compound 3]", "values": [{"measurement": "Vmax", "setting": "TGR; 35 µM inhibitor", "result": "0.011 ± 0.0002 ΔA412/min"}, {"measurement": "Vmax", "setting": "TGR; 50 µM inhibitor", "result": "0.0096 ± 0.0002 ΔA412/min"}]}
{"smiles": "O=C(C1CCCCC1)N1CC(=O)N2CCc3ccccc3C2C1", "note": "(centres unmarked) [PZQ, praziquantel]", "values": [{"measurement": "ED50 against adult worms in mice", "setting": "adult worms in mice", "result": 80, "unit": "mg/kg"}, {"measurement": "LD50 against adult worms, female", "setting": "adult worms", "result": 5.1, "unit": "µM"}, {"measurement": "LD50 against adult worms, male", "setting": "adult worms", "result": 1.5, "unit": "µM"}, {"measurement": "reduction in worm burden", "setting": "juvenile worms in mice; mice, 500 mg/kg, 21 d.p.i.", "result": 0, "unit": "%"}, {"measurement": "reduction in worm burden", "setting": "juvenile worms in mice; mice, 500 mg/kg, 28 d.p.i.", "result": 0, "unit": "%"}, {"measurement": "reduction in worm burden", "setting": "juvenile worms in mice; mice, 1,000 mg/kg, 21 d.p.i.", "result": 50, "unit": "%"}, {"measurement": "reduction in worm burden", "setting": "juvenile worms in mice; mice, 1,000 mg/kg, 28 d.p.i.", "result": 17, "unit": "%"}, {"measurement": "ED50", "setting": "juvenile worms in mice; mice, doses titrated 28 d.p.i.", "result": "2,456 mg/kg"}]}
